From patent EP4059493A1, “A CHLOROPHYLLIN CONTAINING PHARMACEUTICAL COMPOSITION FOR PREVENTION OF PATHOGENESIS OF CORONAVIRUS DISEASE” (priority 2021, dated 2022)
Read-outs that look alike come from different tables or passages of the source.

Columns and labels:
Vero CCL-81 cells = conditions: 5µM Concentration (Fig 4B right panel)
white blood cell = experiment: Phase I clinical study: white blood cell (WBC) count in blood; assay type: in vivo, human; conditions: 8-16hr after first dose (750 mg), fasting
Method: (§1) An open label Phase I clinical study was conducted to assess pharmacodynamics of sodium copper Chlorophyllin in healthy adult, human male subjects under fasting conditions. The study was approved by Drug Controller General of India (DCGI). The trial is registered with the Clinical Trial Registry of India (CTRI/2018/09/015576). Five healthy male subjects were allowed to fast overnight and one Chlorophyllin tablet (750 mg) was administered to each subject by oral route along with ∼200 ml water. The subjects were given breakfast, lunch and snacks and a second tablet of Chlorophyllin (750 mg) was administered to each subject by oral route along with 200 ml water after 12 hr.
(§2) Chlorophyllin tablets comprising Chlorophyllin or salts thereof (750 mg), were administered to healthy human subjects after overnight fasting. Blood samples were collected through an indwelling intravenous cannula (Venflon) placed in the fore arm vein of the subjects at different time intervals. Absolute neutrophil count (ANC) and white blood cell (WBC) counts were measured. Serum was separated and chemokine concentration in the serum was measured using cytometric bead array.

SARS-CoV-2 virus = assay type: cell-based
healthy human subjects = experiment: Phase I clinical study: tolerability in healthy human subjects; assay type: in vivo; conditions: 750 mg given twice a day, all five human subjects
Method: as §1

MIP-1β = experiment: Phase I clinical study: serum chemokine by cytometric bead array, MIP-1β; assay type: in vivo, human; conditions: 24hr after first dose
Method: as §1, §2

mice = experiment: Acute oral toxicity (oral gavage), mice; assay type: in vivo
Method: (§3) Different doses of Chlorophyllin (100 to 5000 mg/kg body weight) were given to mice and rats (6 males, 6 females) by oral gavage in an accredited facility for animal toxicity testing. […] There were no signs of toxicity in rodents treated with indicated doses of Chlorophyllin.

MCP-1 = experiment: Phase I clinical study: serum chemokine by cytometric bead array, MCP-1; assay type: in vivo, human; conditions: 24hr after first dose
Method: as §1, §2

lymphocytes = experiment: Phase I clinical study: lymphocyte counts in blood; assay type: in vivo, human; conditions: Fig 4A
Method: as §1, §2

neutrophils = experiment: Phase I clinical study: absolute neutrophil count (ANC) in blood; assay type: in vivo, human
Method: as §1, §2

rats [1] = experiment: Acute oral toxicity (oral gavage), rats; assay type: in vivo
Method: as §3

MIP-1α = experiment: Phase I clinical study: serum chemokine by cytometric bead array, MIP-1α; assay type: in vivo, human; conditions: 72hr after first dose
Method: as §1, §2

rats [2] = experiment: 28 day repeat dose toxicity study; assay type: in vivo; conditions: daily dose of 1000 mg per kg body weight for 28 consecutive days
Method: as §3

[3] = tested on: CD34+ hematopoietic stem and progenitor cells; experiment: Phase I clinical study: CD34+ hematopoietic stem and progenitor cells in blood by flow cytometry; assay type: in vivo, human; conditions: 750 mg tablets, fasting (Fig 2)
Method: as §1
Blood sample at each time point was also collected in K2EDTA vacutainer tube and erythrocytes were lysed using RBC lysis buffer. Then cells were stained with fixable far red live dead reagent and PE-CD34 and FITC-CD45 antibodies at 4°C and fixed with 4% formaldehyde. The frequency of CD34+ hematopoietic stem and progenitor cells in the blood was determined by flow cytometry and FlowJo software.

Sodium copper Chlorophyllin
cytotoxicity in the target cells (Vero CCL-81 cells): without causing cytotoxicity | increase in WBC count relative to pre-dose value (white blood cell): 12.8-26.5% | effect on SARS-CoV-2 virus multiplication (SARS-CoV-2 virus; 0.1 micro molar concentration (Fig 4 right panel)): did not inhibit | inhibition of SARS-CoV-2 multiplication (SARS-CoV-2 virus; 5 micro-molar concentration, 72 hr (three days), Vero CCL-81 cells): ~87% | EC50 (SARS-CoV-2 virus; 72 hr treatment, read-out: concentration of CHL required to inhibit the growth of SARS-CoV-2 virus by 50% (EC50)): < 1000 nM | concentration of chlorophyllin required for ∼90% inhibition of multiplication of SARS-CoV-2 virus (SARS-CoV-2 virus; Fig 4): about 5 micro molar | EC50 (SARS-CoV-2 virus; Vero CCL-81 cells, 72 hr, read-out: concentration of Chlorophyllin required for inhibition of 50% viral multiplication(EC50)): < 1000 nM | effect on multiplication of SARS-CoV-2 virus (SARS-CoV-2 virus; less than 1 micro-molar concentration): did not significantly decrease | tolerability in human subjects (healthy human subjects): well tolerated | relative decrease in MIP-1β in human blood as compared to pre-dose value (MIP-1β): 11-55% | tolerability of acute oral dose (mice; mice, up to 5000 mg/kg body weight, oral gavage): well tolerated | LD50 dose (mice; rodents (mice), proposed from absence of toxicity, morbidity or mortality): higher than 5000 mg/kg body weight | relative decrease in MCP-1 in human blood as compared to pre-dose value (MCP-1): 13-37% | increase in the lymphocyte counts in human blood as compared to pre-dose value (lymphocytes): up to 30% | time after first dose at which ANC increase was observed (neutrophils; 750 mg, 4hr before second dose): ≤ 8 h | increase in ANC relative to pre-dose value (neutrophils; 8-16 hr after first dose (750 mg), fasting, five subjects): 12.4-32.5% | tolerability of acute oral dose (rats [1]; rats, up to 5000 mg/kg body weight, oral gavage): well tolerated | LD50 dose (rats [1]; rodents (rats), proposed from absence of toxicity, morbidity or mortality): higher than 5000 mg/kg body weight | relative decrease in MIP-1α in human blood as compared to pre-dose value (MIP-1α): 12-21% | tolerability in repeat dose toxicity study (rats [2]): well tolerated | relative decrease in percentage of CD34+ HPSCs in human blood as compared to pre-dose value [3]: 50-85%
